The test system of assay [1] is B16 melanoma cells. The assay is described as follows: Cytotoxicity against B16 melanoma cells, colony formation. It counts as cell-based. Conditions: B16 mouse melanoma, 2 h treatment; read-out: Drug Concentration required to kill 90% of Clonogenic Tumor Cells In Vitro (LC90), B/16. On the procedure: B16 melanoma cells in exponential growth (2-3×10^6 cells in 10 ml of serum-free MEM medium) were treated with drug for 2 hr. The cells were separated, washed, and resuspended in MEM medium supplemented with 10% fetal bovine serum. The cells were plated in 60-mm culture dishes at a density of 50-50,000 cells/plate (depending upon the drug concentration used) and then incubated for 8 days in a CO2 incubator at 37°. The colonies were fixed and stained with 0.5% crystal violet in ethanol and counted. The log of the surviving fraction was plotted against drug concentration, and from this plot the concentration required to reduce the colony number to 10% of control (LC90) was determined.

Assay [2] concerns HT29 human colon cancer cells. In words: Aerobic and hypoxic selectivity against human colon cancer HT29 cells, colony formation. It counts as cell-based. The following applies: 4 h. As for the experimental part: HT29 human colon cancer cells were maintained in exponential growth in α-MEM medium supplemented with 10% fetal bovine serum and 25 mM HEPES buffer, and cultured at 37° C. and 3% CO2. For drug treatments, 1-2×10^6 cells in 10 ml of medium were transferred to glass reaction vials. For the hypoxic experiments, the medium was first gassed for 3 hr with 95% nitrogen/5% CO2 to achieve a partial pressure of oxygen <100 ppm. These cell suspensions were then treated with drug at different concentrations under either aerobic or hypoxic conditions for 4 hr in the reaction vials. The medium was removed, the cells were washed, and a colony formation assay was carried out as described above in Example 15. Colonies with […] 50 cells were counted 12-14 days after plating. The log of the surviving fraction was plotted against drug concentration, and from this plot the concentration required to reduce the colony number to 10% of control (LC90) was determined. The results of this test on representative compounds of the present invention are depicted in Table 4.

Assay [3] has as its system L1210/O (cyclophosphamide sensitive) murine leukemia cells. In words: Soft agar colony-forming assay, in vitro cytotoxicity against cyclophosphamide-sensitive L1210 murine leukemia. The class given is cell-based, mouse. Conditions: 1 h at 37°, 99% cell kill. As for the experimental part: (§1) The In Vitro cytotoxic activity of representative compounds under hypoxic and aerobic conditions were evaluated as follows.
(§2) A soft agar colony-forming assay according to the procedure of Chu and Fischer, Biochem. Pharmacol., 17, 753-767 (1968) was used and modified where necessary. Cultured mouse L1210 and P388 sensitive cells were purchased from EG&G Mason Research Institute, Tumor Bank, Worchester, Ma. Cultured cyclophosphamide resistant L1210 and P388 cells were obtained from Dr. Robert Struck of Southern Research Institute, Birmingham, Ala. Typically, the desired cells (2-3×10^6 cells/ml) in exponential growth and suspended in 6.5 ml of Fischer's medium (Gibco Lab., Grand Island, N.Y.) were divided into six groups (1 control and 5 treated groups) containing an equal number of cells in 1 ml. These cells were then treated with varying doses of drug diluted with media to give a total volume of 10 ml, and incubated for one hour at 37° C. The cells were washed three times with 3 ml of supplemented Fischer's medium (containing 10% horse serum) by centrifuge (800×g), removal of media by suction, and resuspension of the pellet in media (5 ml). A 1-ml portion was used to determine the cell count with a Coulter counter. From the remainder, a 5-ml suspension of cells was prepared at a density of 10^5 cells/ml, and between 10^2 and 10^5 cells were placed on soft agar and incubated at 37° C. Colonies were counted after 10 days. The log of the surviving fraction was plotted vs. drug concentration and from this plot the LC99 was obtained. (By definition, the LC99 value represents the concentration of drug necessary to effect a 99% cell kill.)

For assay [4], the system named is P388/O (cyclophosphamide sensitive) murine leukemia cells. The assay is described as follows: Soft agar colony-forming assay, in vitro cytotoxicity against cyclophosphamide-sensitive P388 murine leukemia. It counts as cell-based, mouse. Conditions: 1 h at 37°, 99% cell kill. On the procedure: as §1, §2
Assay [5] relates to KHT/iv cells (mouse KHT sarcoma). The assay is described as follows: Hypoxic cell selectivity using KHT/iv cells, clonogenic assay. It counts as cell-based. Conditions: 4 h at 37°; for LC99, Aerobic: aerobic (95:5 air:CO2); for LC99, Hypoxic: hypoxic (95:5 nitrogen:CO2). On the procedure: KHT/iv cells were adapted to cell culture from tile mouse KHT sarcoma by Dietmar Siemann, University of Rochester. Cells were maintained in Eagle's basal medium and 10% fetal calf serum for all experiments. Cells in exponential growth were trypsinized from monolayer cultures and separated from one another by agitation in a gas-tight syringe at a density of 1-2×10^7 cells/ml for 15 minutes at 37°. The cells were then resuspended in HEPES-buffered Eagle's medium contained in stirred gas-tight vials at a final density of 2×10^7 cells/ml; before cells or drugs were added, the vials were pre-equilibrated with humidified gas having tile composition 95:5 air:CO2 for aerobic treatment or 95:5 nitrogen:CO2 from hypoxic treatment. Oxygen tension in the hypoxic medium was approximately 100 ppm after tile equilibration period. Drug was dissolved a volume of ethanol that would give a final ethanol concentration of 1% in the medium; this concentration of ethanol had no effect on the plating efficiency of control cell preparations. Cells were incubated with drug under aerobic or hypoxic conditions at 37° for 4 hours. The cells were then removed from the vials, washed with drug-free medium, counted, and plated for cell survival using a standard clonogenic assay. Cell surviving fraction was plotted vs. drug concentration, and the LC99 values were obtained from the least squares equation.

Assay [6] deals with P388/CP (cyclophosphamide resistant) murine leukemia cells. In words: Soft agar colony-forming assay, in vitro cytotoxicity against cyclophosphamide-resistant P388 murine leukemia. It counts as cell-based, mouse. Conditions: 1 h at 37°, 99% cell kill. On the procedure: as §1
as §2, with “From the remainder, a 5-ml suspension of cells was prepared at a density of 10^5 cells/ml, and between 10^2 and 10^5 cells were placed on soft agar and incubated at 37° C.” left out, “The log of the surviving fraction was plotted vs. drug concentration and from this plot the LC99 was obtained. (By definition, the LC99 value represents the concentration of drug necessary to effect a 99% cell kill.)” left out

Assay [7] relates to L1210/CP (cyclophosphamide resistant) murine leukemia cells. In words: Soft agar colony-forming assay, in vitro cytotoxicity against cyclophosphamide-resistant L1210 murine leukemia. The class given is cell-based, mouse. The following applies: 1 h at 37°, 99% cell kill. On the procedure: as §1
as §2, with “From the remainder, a 5-ml suspension of cells was prepared at a density of 10^5 cells/ml, and between 10^2 and 10^5 cells were placed on soft agar and incubated at 37° C.” left out, “The log of the surviving fraction was plotted vs. drug concentration and from this plot the LC99 was obtained. (By definition, the LC99 value represents the concentration of drug necessary to effect a 99% cell kill.)” left out

The mark [8] stands for this setting: Table 3, aerobic, read-out: Drug Concentration required to kill 90% of Clonogenic Tumor Cells In Vitro (LC90), HT29 Aerobic.
The mark [9] stands for this setting: Table 3, hypoxic (95% nitrogen/5% CO2), read-out: Drug Concentration required to kill 90% of Clonogenic Tumor Cells In Vitro (LC90), HT29 Hypoxic.
Where [10] appears, read: Table 4, aerobic, read-out: Drug Concentration required to kill 90% of Clonogenic Tumor Cells In Vitro (LC90), HT29 Aerobic.
[11] abbreviates: Table 4, hypoxic (95% nitrogen/5% CO2), read-out: Drug Concentration required to kill 90% of Clonogenic Tumor Cells In Vitro (LC90), HT29 Hypoxic.

This is an account of results in patent publication US5403932A, “Phosphoramidates useful as antitumor agents” (Research Corporation Technologies, Inc., priority 1994, dated 1995).

Read-outs that look alike come from different tables or passages of the source. Bounds are passed on as bounds.

As to `CCOC(=O)CC(OP(=O)(N(CCCl)CCCl)N(CCCl)CCCl)c1ccc([N+](=O)[O-])cc1` (centres unmarked) [Compound 12, O-(1-(4-nitrophenyl)-2-carbethoxyethyl)-N,N,N',N'-tetrakis(2-chloroethyl)phosphoramide], the results for the IC90 in assay [1], in assay [2] (setting [8]) and in assay [2] (setting [9]) were greater than 100 µM, 80 µM and 12 µM, respectively.
As for `CCOC(=O)CC(OP(=O)(N(CCCl)CCCl)N(CCCl)CCCl)c1cc([N+](=O)[O-])ccn1` (centres unmarked) [Compound 17, O-(1-(4-nitro-2-pyridyl)-2-carbethoxyethyl)-N,N,N',N'-tetrakis(2-Chloroethyl)phosphoramide], the IC90 in assay [1] was determined as 50 µM; in assay [2] (setting [8]), 80 µM; in assay [2] (setting [9]), 35 µM.
For `CCOC(=O)CC(OP(N)(=O)N(CCCl)CCCl)c1cc(CN(C)C)cc2cc([N+](=O)[O-])cnc12` (centres unmarked), the IC90 in assay [2] (setting [10]) came to 700 µM; in assay [2] (setting [11]), 95 µM.
For the molecule `CCOC(=O)CC(OP(=O)(N(CCCl)CCCl)N(CCCl)CCCl)c1ccc([N+](=O)[O-])s1` (centres unmarked) [Compound 15, O-(1-(5-nitro-2-thiophene)-2-carbethoxyethyl)-N,N,N'N'-tetrakis(2-chloroethyl)phosphoramide], in assay [1], the IC90 was 3 µM.
Take `CN(C)CCOC(=O)CC(OP(=O)(N(CCCl)CCCl)N(CCCl)CCCl)c1ccc([N+](=O)[O-])cc1` (centres unmarked) [Compound 13, O-(1-(4-nitrophenyl)-2-(2-N,N-dimethylaminoethoxycarbonyl)ethyl)-N,N,N'N'-tetrakis-(2-chloroethyl)phosphoramide]: the values for the IC90 in assay [1], in assay [2] (setting [8]) and in assay [2] (setting [9]) were less than 2 µM, 60 µM and 35 µM, respectively.
For the molecule `CCOC(=O)CC(OP(=O)(N(CCCl)CCCl)N(CCCl)CCCl)c1ccc([N+](=O)[O-])c(C)n1` (centres unmarked) [Compound 16, O-(1(6-methyl-5-nitro-2-pyridyl)-2-carbethoxyethyl)-N,N,N'N'-tetrakis(2-chloroethyl)phosphoramide], the IC90 came to 150 µM in assay [1], 110 µM in assay [2] (setting [8]) and 25 µM in assay [2] (setting [9]).
Regarding `COC(=O)CC(OP(N)(=O)N(CCCl)CCCl)c1ccccc1` (centres unmarked) [Ph, reference compound], the LC99 in assay [3] was found to be 350; in assay [4], 300.
As for `NP(=O)(OCc1ccccc1[N+](=O)[O-])N(CCCl)CCCl` (centres unmarked) [Compound 2-nitro], in assay [5], the “LC99, Aerobic” value came out at 700 and the “LC99, Hypoxic” value amounted to 230.
`COC(=O)CC(OP(N)(=O)N(CCCl)CCCl)c1ccccc1[N+](=O)[O-]` (centres unmarked) [2-NO2 Ph, methyl 3-(2-nitrophenyl)-3-(N,N-bis(2-chloroethyl)phosphorodiamido)propionate]: the LC99 in assay [3] came out at 172; in assay [4] it was 134.
For `NP(=O)(OCc1ccc([N+](=O)[O-])cc1)N(CCCl)CCCl` (centres unmarked) [Compound 4-nitro], in assay [5], the “LC99, Aerobic” value was found to be 320 and the “LC99, Hypoxic” value was determined as 120.
With `COC(=O)CC(OP(N)(=O)N(CCCl)CCCl)c1ccc([N+](=O)[O-])cc1` (centres unmarked) [4-NO2 Ph, methyl 3-(4-nitrophenyl)-3-(N,N-bis-(2-chloroethyl)phosphorodiamido) propionate], the LC99 in assay [3] was determined as 138; in assay [6], 77; in assay [7], 152; in assay [4], 82.
Turning to `CN(C)CCOC(=O)CC(OP(=O)(N(CCCl)CCCl)N(CCCl)CCCl)c1ccc([N+](=O)[O-])s1` (centres unmarked) [Compound 14, O-(1-(5-nitro-2-thiophene)-2-(2-N,N-dimethylaminoethoxycarbonyl)ethyl)-N,N,N'N'-tetrakis-(2-chloroethyl)-phosphoramide], the IC90 in assay [1] was 2.8 µM; in assay [2] (setting [8]) it was 7.5 µM; in assay [2] (setting [9]) it was 3 µM.
Take `CC(OP(=O)(N(CCCl)CCCl)N(CCCl)CCCl)c1ccc([N+](=O)[O-])cc1` (centres unmarked): the figures for the IC90 in assay [2] (setting [10]) and in assay [2] (setting [11]) were greater than 500 µM and 45 µM, respectively.
